The test system of the test is reconstructed epidermes SKINETHIC® integrating melanocytes (type IV). As to the kind of experiment: Assay of the melanin on reconstructed epidermes integrating melanocytes. It is filed as cell-based, human. On the procedure:
The cells are grown for 10 days at the air/liquid interface, the growth medium is being changed daily. The thus formed type IV epidermis (=negroid) were used from the 10th day of culture. […] Marine cells obtained in Examples 1 and 2. The assessment of the synthesis of intracellular melanin (qualitative study) was carried out by spectrometry at 475 nm after that the cells were suspended, then dissolved in NaOH (1N) and dimethyl sulfoxide for 30 minutes.

SMILES strings stand for the structures.

Turning to `O=c1cc(CO)occ1O` [Positive control, kojic acid], the “Melanin, % vs negative control” value (change of the rate of melanin compared to negative control) is −44%. For the same molecule, the “Melanin, Absorbance (475 nm)” value (intracellular melanin, type IV epidermes, duplicate) was found to be 0.09 ± 0.01.

Values taken from US7604806B2, “Use of a lyophilisate of dedifferentiated plant cells for skin depigmentation and/or lightening” (Biotechmarine, priority 2003, dated 2009).
